Test results as given in patent US20050282755A1, “Compositions having antimicrobial activity and uses thereof” (priority 2004, published 2005).
Converted amounts (≈) assume the structure as drawn. Read-outs that look alike come from different tables or passages of the source. Non-standard residues stand in square brackets, D forms with d. Residues, ends and D or L forms follow the SMILES beside them. *: point of attachment. Lauroyl = CCCCCCCCCCCC(=O)*

Experiments:
IL-12 release = assay: Anti-inflammation assay: IL-12 release in PBMCs stimulated by P. acnes (IL-12p70 ELISA); format: cell-based, human; conditions: PBMCs stimulated by P. acnes, over night; read-out: IC50 value, reduction of IL-12 release
Protocol: An assay that detected reductions in IL-12 released in whole human blood cells (PBMCs) was utilized to detect reductions in inflammation elicited by peptide compositions described herein. The assay utilized the following materials and reagents: whole human blood cells; P. acnes; peptides 55, 67 and 93 from Table 3; IL-12p70 ELISA kit (eBiosciences); RPMI 1640 growth medium; PBS; and a 96-well microtiter plate. PBMCs were prepared from whole human blood cells according to standard procedures and cells were resuspended in RPMI 1640 and 10% FCS. Cells were seeded at 250,000 cells per well in a 96-well microtiter plate and incubated for 90 minutes. […] Controls included untreated cells, P. acnes alone or a peptide alone. The cells were incubated over night at 37° C., and cell supernatants were collected and stored at −80° C. for use in an IL-12 ELISA assay (eBiosciences). A 1:1 dilution of supernatant was utilized to perform the IL-12 ELISA following the protocol provided by the manufacturer.

HeLa cells = conditions: 16 h
[1] = test system: Candida albicans ATCC 18804; assay: MIC in yeasts, NCCLS M27-A2 broth microdilution, RPMI 1640 (Table 9, letter e); format: cell-based; conditions: ATCC 18804
In short: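 Broth microdilution per NCCLS M27-A2 in RPMI 1640 with glutamine and phenol red, final inoculum 0.5×10^3–2.5×10^3 CFU/milliliter. Incubated 24 to 48 hours at 37° C; MIC is the lowest peptide concentration with no visible growth.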

[2] = test system: Staphylococcus epidermidis ATCC 12228; assay: MIC, NCCLS M7-A6 broth microdilution (Table 9, no superscript); format: cell-based; conditions: ATCC 12228
In short: (§1)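 MIC determined by microdilution in cation-adjusted Mueller Hinton broth after overnight growth at 37° C, defined as the lowest peptide level lacking turbidity.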

Salmonella dublin (Lane) = assay: as above; format: cell-based
In short: as §1

[3] = test system: Pseudomonas aeruginosa ATCC 27853; assay: as above; format: cell-based; conditions: ATCC 27853
In short: as §1

[4] = test system: Escherichia coli ATCC 25922; assay: as above; format: cell-based; conditions: ATCC 25922
In short: as §1

Jurkat cells = format: cell-based; conditions: 16 h
Protocol: Toxicity of peptide compositions for mammalian cells was determined by using a metabolic viability assay. For this assay 4×10^5 HeLa cells were seeded per well into a microwell plate (50 microliters volume). Jurkat cells also were utilized in separate experiments. The cells were incubated for 16 hours at 37° C. under mammalian cell culture conditions. Two fold serial dilutions for each peptide were prepared and added to the cells (final volume 100 microliters) and incubated for 16 hours at 37° C. For each dilution series control wells containing cells without peptide were included. The metabolic activity and viability of the cells were determined by using a commercially available assay (CellTiter96 assay, Promega Corp.). According to manufacturer's protocol 20 microliters of CellTiter reagent was added to each well and incubated at 37° C. for 1-4 hours. The CellTiter assay is a commercial version of the MTT assay, which measures the conversion of a tetrazolium […] into a colored formazan salt in metabolically active cells. The formation of the formazan product can be measured at 470 nm and is generally accepted as a measure of cellular viability. The cells were incubated at 37° C. and monitored for color development. The conversion of CellTiter reagent was measured at 470 nm using a Versamax plate reader (Molecular Devices). The viability of peptide treated cells is expressed as IC50 (i.e., concentration that leads to a 50% reduction of viability relative to the untreated control). Table 7A reports IC50 values for HeLa cells cultured in OptiMEM or 10% FBS when contacted with peptide compositions from Table 3, and Table 7B reports IC50 values for HeLa cells or Jurkat cells contacted with peptide compositions from Table 3.

[5] = test system: Propionibacterium acnes ATCC 6919; assay: MIC, agar dilution method NCCLS M11-A6, Brucella agar, anaerobic (Table 9, superscript c); format: cell-based; conditions: letter c: agar dilution NCCLS M11-A6, Brucella agar, anaerobic
In short: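 Agar dilution per NCCLS M11-A6 on Brucella agar; final inoculum 1.5×10^8 CFU/milliliter applied to plates, incubated 48-96 hours at 37° C. under anaerobic (GasPak) conditions. MIC = lowest peptide concentration with no colony growth.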

[6] = test system: Staphylococcus aureus ATCC 29213; assay: MIC, NCCLS M7-A6 broth microdilution, cation-adjusted Mueller Hinton broth (Table 9, no superscript); format: cell-based; conditions: ATCC 29213
In short: as §1

[7] = test system: Pseudomonas aeruginosa ATCC 27853; conditions: ATCC 27853, pH 7.4
S. dublin (Lane) = assay: Broth microdilution assay for MIC, Table 4A; format: cell-based, Salmonella dublin; conditions: 3 log or greater reduction in bacterial growth over 16 hours
Protocol: (§2) S. dublin (Lane), S. aureus (Rosenbach), P. acnes, ATCC 6919, E. coli K12 TOP10, and E. coli K12 55099 (protease neg.) bacterial strains were tested in the microbial inhibition assays described hereafter. The S. dublin (Lane), and S. aureus (Rosenbach) strains are available from ATCC (Staphylococcus aureus subsp. aureus Rosenbach (Number: 13150) and Salmonella choleraesuis serotype dublin (Number: 39184)). The strain of P. acnes was purchased from ATCC (strain #6919) (Manassas, Va.). The E. coli K12 strains TOP 10 and 55099 were purchased from Invitrogen (Carlsbad, Calif.) and ATCC respectively. HeLa cells were purchased from ATCC (CCL2). Tryptic soy broth (TSB), Brucella broth, reinforced Clostridial broth and agar were purchased from Becton & Dickinson (distributed by VWR, West Chester, Pa.). All plastic consumables were purchased from VWR (West Chester, Pa.). […]
(§3) The minimum inhibitory concentration (MIC) of peptide compositions for S. aureus, S. dublin and E. coli was determined in a broth microdilution assay. […] The MIC for each peptide for each microorganism was determined by three methods. The growth of bacteria was directly determined by measuring the absorption at 600 nm using a Versamax microplate reader (Molecular Devices). […] After incubation for 16 hours at 37° C. bacterial growth was evaluated and documented (Alpha Innotech gel documentation system).

S. aureus (Rosenbach) = assay: Broth microdilution assay for MIC (20% TSB, 50 mM Na2CO3, 1 mM MgCl2), Table 4A; format: cell-based, Staphylococcus aureus; conditions: 3 log or greater reduction in bacterial growth over 16 hours
Protocol: as §2, §3

E. coli K12 TOP10 = conditions: 3 log or greater reduction in bacterial growth over 16 hours
human red blood cells = format: cell-based; conditions: red cells of human
Protocol: Hemoglobin-release assays with human red blood cells (RBC) were performed to determine the hemolytic activity of granulysin peptides. Human RBCs (San Diego Blood Bank, San Diego, Calif.) were washed three times in PBS buffer (8 mM Na2HPO4, 1.5 mM KH2PO4, 140 mM NaCl and 2.7 mM KCl, pH 7.4), resuspended in PBS to the concentration of 5% (v/v). The RBC were then exposed to different peptide compositions at various concentrations (100-6.25 micromolar) and incubated at 37° C. for 60 minutes in a total volume of 120 microliters. Every experiment included a negative control without peptide and maximum control treated with 5% TX-100 for complete hemoglobin release. Samples were centrifuged for 1 minute at 13,000 g to remove debris and intact cells. The hemoglobin-containing supernatant was removed and transferred to a microwell plate. Hemoglobin release was quantified at A540 using a Versamax plate reader (Molecular Devices). The degree of hemolysis is expressed as percentage of hemolysis compared to the […], using the following formula: % hemolysis=(sample−neg. control)/(max. control−neg. control)×100.

[8] = test system: E. coli K12 55099 (protease neg.); conditions: 3 log or greater reduction in bacterial growth over 16 hours

| SMILES | IC50 (IL-12 release) [µM] | IC50 (HeLa cells) [µM] | MIC C. albicans [1] [e ug/mL] | MIC S. epidermidis [2] [µg/mL] | MIC S. dublin (Salmonella dublin (Lane)) [µg/mL] | MIC P. aeruginosa [3] [µg/mL] | MIC E. coli [4] [µg/mL] | IC50 (Jurkat cells) [µM] | MIC P. acnes [5] [c ug/mL] | MIC S. aureus [6] [µg/mL] | MIC P. aeruginosa [7] [b ug/mL] | Minimum inhibitory concentration (MIC) S. dublin (S. dublin (Lane)) [µM] | Minimum inhibitory concentration (MIC) S. aureus (S. aureus (Rosenbach)) [µM] | Minimum inhibitory concentration (MIC) E. coli Top10 (E. coli K12 TOP10) [µM] | Hemolytic effect on human red blood cells (human red blood cells; 6.25 Micromolar) [%] | Hemolytic effect on human red blood cells (human red blood cells; 12.5 Micromolar) [%] | Hemolytic effect on human red blood cells (human red blood cells; 25 Micromolar) [%] | Hemolytic effect on human red blood cells (human red blood cells; 50 Micromolar) [%] | Hemolytic effect on human red blood cells (human red blood cells; 100 Micromolar) [%] | Minimum inhibitory concentration (MIC) E. coli 55099 [8] [µM] |
| --- | --- | --- | --- | --- | --- | --- | --- | --- | --- | --- | --- | --- | --- | --- | --- | --- | --- | --- | --- | --- |
| CCCCCCCCCCCC(=O)N[C@@H](C(=O)N[C@H](CCCNC(=N)N)C(=O)N[C@@H](C(=O)N[C@H](CO)C(=O)N[C@H](CCCNC(=N)N)C(=O)N[C@@H](C(=O)NCC(=O)N[C@H](CCCNC(=N)N)C(=O)N[C@H](CO)C(=O)N[C@H](CCCNC(=N)N)C(=O)N[C@H](Cc1c[nH]c2ccccc12)C(=O)N[C@H](CCCNC(=N)N)C(=O)N[C@H](CC(=O)O)C(=O)N[C@H](Cc1c[nH]c2ccccc12)C(=O)N[C@H](CO)C(=O)N[C@H](CCCNC(=N)N)C(=O)N[C@H](CC(N)=O)C(=O)N[C@H](Cc1ccccc1)C(=O)N[C@H](CCSC)C(=O)N[C@H](CCCNC(=N)N)C(N)=O)[C@H](C)O)C(C)C)[C@H](C)O [Peptide 76, Lauryl-trvsrtgrsrwrdwsrnfmr-NH2] (Lauroyl-[dT][dR][dV][dS][dR][dT]G[dR][dS][dR][dW][dR][dD][dW][dS][dR][dN][dF][dM][dR]-NH2) | 1.12 | 5.49 | 16 | 1 (≈ 0.358 µM) | 16 (≈ 5.73 µM) | 32 (≈ 11.5 µM) | 4 (≈ 1.43 µM) | 3.3 | 64 | 2 (≈ 0.716 µM) | – | – | – | – | – | – | – | – | – | – |
| CCCCCCCCCCCC(=O)N[C@H](CCCNC(=N)N)C(=O)N[C@H](CO)C(=O)N[C@H](CCCNC(=N)N)C(=O)N[C@H](Cc1c[nH]c2ccccc12)C(=O)N[C@H](CCCNC(=N)N)C(=O)N[C@H](CC(=O)O)C(=O)N[C@@H](C(=O)N[C@H](C)C(=O)N[C@H](CCCNC(=N)N)C(=O)N[C@H](CC(N)=O)C(=O)N[C@H](Cc1ccccc1)C(=O)N[C@H](CCSC)C(=O)N[C@H](CCCNC(=N)N)C(N)=O)C(C)C [Peptide 90, Lauryl-rsrwrdvarnfmr-NH2] (Lauroyl-[dR][dS][dR][dW][dR][dD][dV][dA][dR][dN][dF][dM][dR]-NH2) | – | 5 to 15 | 16 | 4 (≈ 2.07 µM) | 4 (≈ 2.07 µM) | – | 4 (≈ 2.07 µM) | 5 to 15 | 8 | 4 (≈ 2.07 µM) | 3 | – | – | – | – | – | – | – | – | – |
| CCCCCCCCCCCC(=O)N[C@H](C(=O)N[C@@H](CCCNC(=N)N)C(=O)N[C@H](C(=O)N[C@@H](CO)C(=O)N[C@@H](CCCNC(=N)N)C(=O)N[C@H](C(=O)NCC(=O)N[C@@H](CCCNC(=N)N)C(=O)N[C@@H](CO)C(=O)N[C@@H](CCCNC(=N)N)C(=O)N[C@@H](Cc1c[nH]c2ccccc12)C(=O)N[C@@H](CCCNC(=N)N)C(=O)N[C@@H](CC(=O)O)C(=O)N[C@@H](Cc1c[nH]c2ccccc12)C(=O)N[C@@H](CO)C(=O)N[C@@H](CCCNC(=N)N)C(=O)N[C@@H](CC(N)=O)C(=O)N[C@@H](Cc1ccccc1)C(=O)N[C@@H](CCSC)C(=O)N[C@@H](CCCNC(=N)N)C(=O)N[C@@H](CCCCN)C(N)=O)[C@@H](C)O)C(C)C)[C@@H](C)O [Peptide 64] (Lauroyl-TRVSRTGRSRWRDWSRNFMRK-NH2) | – | – | 32 | 1 (≈ 0.342 µM) | 16 (≈ 5.48 µM) | >64 | 64 (≈ 21.9 µM) | – | >64 | 8 (≈ 2.74 µM) | – | 8 (≈ 23.4 µg/mL) | 2 (≈ 5.84 µg/mL) | 2 (≈ 5.84 µg/mL) | 14 | 15 | 29 | 46 | 81 | 1 (≈ 2.92 µg/mL) |
